Laboratory results reported in paper PMC5799307, “Creation of a long-acting nanoformulated dolutegravir” (Nature Communications, 2018).

Columns and labels:
[1] = Blood and tissue DTG levels and animal weights in hu-PBL-NSG mice; assay type: in vivo; settings: NOD/scid-IL-2Rγc^null (NSG), mouse, intramuscular, 45 mg/kg DTG-eq.; kidney, day 39; read-out: tissue DTG level
Description: NOD/scid-IL-2Rγc^null (NSG) mice (6–7 weeks of age; Jackson Labs, Bar Harbor, ME) were administered a single IM injection in a volume of 40 µL/25 g mouse of NDTG or NMDTG at a concentration of 45 mg/kg DTG-eq. on day 0 for measures of relative viral restriction. Mice were then reconstituted with 25 × 10^6 human peripheral blood lymphocytes (hu-PBL) per mouse 4 or 19 days post drug treatment by IP injection. Next, mice were challenged 10 days post hu-PBL reconstitution with HIV-1ADA at 14 or 29 days post drug treatment by IP injection at a TCID50 of 2 × 10^4 per mouse. […] Plasma was saved for viral load (HIV-1 RNA) quantitation using the Roche Amplicor and Taqman-48 system [HIV-1 kit V2.0 according to the manufacturer’s instructions (Indianapolis, IN)]. Blood and tissue drug concentrations were determined by UPLC-MS/MS as described above. […] The number of HIV-1p24+ and HLA-DP/DQ/DR+ cells per section were counted and expressed as percentage of HIV-1p24+ cells/HLA-DP/DQ/DR+ cells per section. […] Plasma was used for quantitative viral load (measurements of HIV-1 RNA) using the Roche Amplicor and Taqman-48 system. Blood and tissue drug concentrations were determined by UPLC-MS/MS as described above. […]

[2] = Pharmacokinetics and biodistribution in Balb/cJ mice, single IM dose; settings: male, mouse, in vivo
Description: Male Balb/cJ mice (6–8 weeks of age; Jackson Labs, Bar Harbor, ME) were injected with NDTG or NMDTG (45 mg/kg DTG-eq.) intramuscularly (IM; caudal thigh muscle) in a volume of 40 µL/25 g mouse. For injections, NDTG and NMDTG were diluted to 28.1 mg DTG/mL in endotoxin-free water and 42.3 mg MDTG/mL in HEPES buffer, respectively. Twenty-five microliters of whole blood was collected by cheek puncture into 1 mL ACN at 1, 3, 7, 14, 21, 28, 35, 42, 49, and 56 days after drug administration. Animals were humanely euthanized using isoflurane followed by cervical dislocation at 28 and 56 days, and tissues (spleen, liver, lymph nodes, lungs, kidneys, gut-associated lymphoid tissue (GALT), and brain) were collected for drug quantitation. Drug concentration in whole blood and tissues was determined by UPLC-MS/MS using a Waters Acquity UPLC- Xevo TQ-S micro mass spectrometry system (Milford, MA). For blood analysis, 10 µL of internal standard (IS) solution was added to each sample. […] MDTG was quantified using a 7-min gradient of the same mobile phases at a flow rate of 0.35 mL/min. […] DTG and MDTG were detected at cone voltages of 10 V and 16 V and collision energies of 25 V and 44 V, respectively. […] Spectra were analyzed and quantified by MassLynx software version 4.1. Quantitation was based upon drug peak area to internal standard peak area ratios.

| time prodrug was detectable in blood [2] [days] | Compound | concentration at 39 days [1] [ng/g] |
| --- | --- | --- |
| – | C[C@@H]1CCO[C@H]2Cn3cc(C(=O)NCc4ccc(F)cc4F)c(=O)c(O)c3C(=O)N12 [DTG, dolutegravir] | 4.1 |
| ≤ 3 | CCCCCCCCCCCCCC(=O)Oc1c2n(cc(C(=O)NCc3ccc(F)cc3F)c1=O)C[C@@H]1OCC[C@@H](C)N1C2=O [MDTG] | – |
